Data on 10 compounds can be found in patent US9179674B2, “Macrocyclic picolinamide compounds with fungicidal activity” (DOW AGROSCIENCES LLC, priority 2013, dated 2015).

Read-outs that look alike come from different tables or passages of the source.

Series [1] deals with Mycosphaerella graminicola; Anamorph: Septoria tritici. Nature of the series: Leaf Blotch of Wheat fungicidal activity (SEPTTR). The settings on record: Zymoseptoria tritici, rate 100 ppm. Type of series: in vivo. In a few lines:
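Acetone solutions diluted with nine volumes of water containing 110 ppm Triton X-100, sprayed to run-off on first-leaf wheat seedlings (Yuma), inoculated with S. tritici before or after treatment. Plants held in dew chambers, then in a 20 °C greenhouse. Disease severity (0–100%) scored when untreated plants fully symptomatic; % control relative to untreated.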

The subject of series [2] is Puccinia triticina. Kind of series: Wheat Brown Rust fungicidal activity (PUCCRT). Type of series: in vivo. The settings on record: Puccinia triticina, rate 100 ppm. Put shortly:
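Yuma wheat seedlings at first-leaf stage sprayed to run-off (acetone solution in water with 110 ppm Triton X-100) or track-sprayed as EC with 0.1% Trycol 5941; inoculated with P. triticina spores before or after treatment. Overnight dark dew at 22° C., then greenhouse 24° C.; disease severity 0–100% gives percent control vs untreated.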

Where [3] appears, read: 24 h, 1 Day Protectant, read-out: Disease control SEPTTR 1DP.
Where [4] appears, read: 72 h, 3 Day Curative, read-out: Disease control SEPTTR 3DC.
Where [5] appears, read: 24 h, 1 Day Protectant, read-out: Disease control PUCCRT 1DP.
Where [6] appears, read: 72 h, 3 Day Curative, read-out: Disease control PUCCRT 3DC.

For orientation: melting point means the temperature, or range, at which the solid turns liquid. With `CCCCCO[C@@H]1[C@@H](CCc2ccccc2)COC[C@H](NC(=O)c2nccc(OC)c2O)C(=O)O[C@H]1C` [Compound F3], the melting point was in the range of 96 to 98 °C. For the same compound, the pest or weed control at 100 ppm in series [1] (setting [3]) was in the range of 80 to 100%. Besides, in series [1] (setting [4]), the pest or weed control at 100 ppm lay in the range of 80 to 100%. Further, the pest or weed control at 100 ppm in series [2] (setting [5]) lay in the range of 80 to 100%. The pest or weed control at 100 ppm in series [2] (setting [6]) was in the range of 80 to 100%.

On to `COc1ccnc(C(=O)N[C@H]2COC[C@H](CCc3ccccc3)[C@@H](OCC(C)C)[C@H](C)OC2=O)c1O` [Compound F4], for which the melting point lay within 117 to 120 °C. Further, the pest or weed control at 100 ppm in series [1] (setting [3]) is 80 to 100%. The pest or weed control at 100 ppm in series [1] (setting [4]) lay in the range of 80 to 100%. Besides, the pest or weed control at 100 ppm in series [2] (setting [5]) fell in the range of 80 to 100%. Moreover, the pest or weed control at 100 ppm in series [2] (setting [6]) lay in the range of 80 to 100%.

The compound `COc1ccnc(C(=O)N[C@H]2COC[C@H](Cc3cccc4ccccc34)[C@@H](OC(=O)C(C)C)[C@H](C)OC2=O)c1O` [Compound F5, (3S,6S,7R,8S)-3-(3-hydroxy-4-methoxypicolin-amido)-6-methyl-8-(naphthalen-1-ylmethyl)-4-oxo-1,5-dioxonan-7-yl isobutyrate] registered a melting point of 139 to 142 °C. Further, the pest or weed control at 100 ppm in series [1] (setting [3]) lay within 80 to 100%. For the same compound, the pest or weed control at 100 ppm in series [1] (setting [4]) lay in the range of 0 to 80%. In series [2] (setting [5]), the pest or weed control at 100 ppm lay within 0 to 80%. Moreover, the pest or weed control at 100 ppm in series [2] (setting [6]) was in the range of 0 to 80%.

In turn, `COc1ccnc(C(=O)N[C@H]2COC[C@H](Cc3cccc4ccccc34)[C@@H](OCCCC(F)(F)F)[C@H](C)OC2=O)c1O` [Compound F6] gave a melting point of 118 to 122 °C. Moreover, in series [1] (setting [3]), the pest or weed control at 100 ppm lay in the range of 80 to 100%. Besides, in series [1] (setting [4]), the pest or weed control at 100 ppm lay within 0 to 80%. Also, the pest or weed control at 100 ppm in series [2] (setting [5]) fell in the range of 0 to 80%.

As for `CCCCCO[C@@H]1[C@@H](Cc2cccc3ccccc23)COC[C@H](NC(=O)c2nccc(OC)c2O)C(=O)O[C@H]1C` [Compound F7], the melting point lay within 116 to 120 °C. Besides, the pest or weed control at 100 ppm in series [1] (setting [3]) fell in the range of 80 to 100%. For the same compound, the pest or weed control at 100 ppm in series [1] (setting [4]) lay within 0 to 80%. Besides, the pest or weed control at 100 ppm in series [2] (setting [5]) fell in the range of 80 to 100%. For the same compound, the pest or weed control at 100 ppm in series [2] (setting [6]) was in the range of 0 to 80%.

Compound `COc1ccnc(C(=O)N[C@H]2COC[C@H](Cc3cccc4ccccc34)[C@@H](Oc3ccc(C)cc3)[C@H](C)OC2=O)c1O` [Compound F8] showed a melting point of 94 to 98 °C. Besides, the pest or weed control at 100 ppm in series [1] (setting [3]) lay in the range of 80 to 100%. Besides, in series [1] (setting [4]), the pest or weed control at 100 ppm was in the range of 0 to 80%. Further, the pest or weed control at 100 ppm in series [2] (setting [5]) was in the range of 80 to 100%. Further, in series [2] (setting [6]), the pest or weed control at 100 ppm lay within 0 to 80%.

The compound `COc1ccnc(C(=O)N[C@H]2COC[C@H](Cc3cccc4ccccc34)[C@@H](OC3CCCC3)[C@H](C)OC2=O)c1O` [Compound F9] registered a melting point of 78 to 85 °C. For the same compound, in series [1] (setting [3]), the pest or weed control at 100 ppm was in the range of 80 to 100%. In addition, in series [1] (setting [4]), the pest or weed control at 100 ppm is 80 to 100%. In addition, in series [2] (setting [5]), the pest or weed control at 100 ppm was in the range of 80 to 100%.

The compound `COc1ccnc(C(=O)N[C@H]2COC[C@H](Cc3cccc4ccccc34)[C@@H](OCC(C)C)[C@H](C)OC2=O)c1O` [Compound F10] yielded a melting point of 78 to 80 °C. Further, the pest or weed control at 100 ppm in series [1] (setting [3]) lay within 80 to 100%. The pest or weed control at 100 ppm in series [1] (setting [4]) lay in the range of 0 to 80%. Further, the pest or weed control at 100 ppm in series [2] (setting [5]) fell in the range of 80 to 100%.

Regarding `CCCCCO[C@@H]1[C@@H](Cc2ccc(C)cc2)COC[C@H](NC(=O)c2nccc(OC)c2O)C(=O)O[C@H]1C` [Compound F11], the melting point lay in the range of 97 to 99 °C. Further, in series [1] (setting [3]), the pest or weed control at 100 ppm lay within 80 to 100%. In addition, in series [1] (setting [4]), the pest or weed control at 100 ppm fell in the range of 80 to 100%. For the same compound, the pest or weed control at 100 ppm in series [2] (setting [5]) lay within 80 to 100%. Besides, the pest or weed control at 100 ppm in series [2] (setting [6]) lay within 0 to 80%.

Turning to `COc1ccnc(C(=O)N[C@H]2COC[C@H](Cc3ccc(C)cc3)[C@@H](OC(=O)C(C)C)[C@H](C)OC2=O)c1O` [Compound F12], the melting point was in the range of 67 to 72 °C. Moreover, the pest or weed control at 100 ppm in series [1] (setting [3]) lay within 80 to 100%. The pest or weed control at 100 ppm in series [1] (setting [4]) is 80 to 100%. For the same compound, in series [2] (setting [5]), the pest or weed control at 100 ppm is 80 to 100%. For the same compound, in series [2] (setting [6]), the pest or weed control at 100 ppm lay within 80 to 100%.
